Like-named read-outs stand apart in the source and are kept apart here.
Key:
Assay type in all cases: biochemical
[1] = target: T1, ARAF^SSDD (MEK1^SASA:ARAF^SSDD-14-3-3ε dimer complex) (Homo sapiens, UniProt P10398, G300S/Y301D/Y302D); experiment: TR-FRET kinase inhibition assay (phosphorylation of biotinylated MEK1), ARAF dimer complex; details: for IC50: 10 nM enzyme, 250 nM MEK1, 200 μM ATP, 40 min preincubation, 30 min reaction; for ARAF^SSDD nH (Hill slope): four-parameter fit, 200 μM ATP
T1 construct: ARAF^274-606, G300S, Y301/302D-14-3-3 ε with N-terminal His6 and StrepII tags; His6 (N); StrepII (N); made in house; host or cells: SF9 insect cells (baculovirus)
T1 sequence (P10398 274-606 G300S/Y301D/Y302D): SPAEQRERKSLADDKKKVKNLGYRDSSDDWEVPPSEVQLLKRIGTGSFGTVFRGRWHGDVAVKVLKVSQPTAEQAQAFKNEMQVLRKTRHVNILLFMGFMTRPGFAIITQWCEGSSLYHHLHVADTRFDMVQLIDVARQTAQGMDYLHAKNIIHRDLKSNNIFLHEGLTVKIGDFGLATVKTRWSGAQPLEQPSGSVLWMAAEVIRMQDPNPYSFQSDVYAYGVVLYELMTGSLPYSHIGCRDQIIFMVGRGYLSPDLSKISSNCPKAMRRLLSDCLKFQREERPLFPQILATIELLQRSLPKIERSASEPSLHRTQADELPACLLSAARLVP

[2] = target: T2, BRAF^V600E (MEK1^SASA:BRAF^V600E monomer complex) (Homo sapiens, UniProt P15056, V600E); experiment: TR-FRET kinase inhibition assay (phosphorylation of biotinylated MEK1), BRAF V600E monomer complex; details: 1 nM enzyme, 250 nM MEK1, 200 μM ATP, 40 min preincubation; three-parameter fit
T2 construct: His6 (N); intein (C, cleaved yes); made in house; host or cells: insect cells (baculovirus)

[3] = target: T3, CRAF^WT (MEK1:CRAF^WT:14-3-3 dimer complex) (Homo sapiens, UniProt P04049); experiment: TR-FRET kinase inhibition assay (phosphorylation of biotinylated MEK1), CRAF WT dimer complex; details: for CRAF^WT nH (Hill slope): four-parameter fit
T3 construct: His6 (N); made in house; host or cells: insect cells (baculovirus)

[4] = target: T4, BRAF^WT (MEK1^SASA:BRAF^WT:14-3-3 dimer complex) (Homo sapiens, UniProt P15056); experiment: biochemical
T4 construct: His6 (N); made in house; host or cells: SF9 insect cells (baculovirus)
T4 sequence (P15056 419-766, one chain of several): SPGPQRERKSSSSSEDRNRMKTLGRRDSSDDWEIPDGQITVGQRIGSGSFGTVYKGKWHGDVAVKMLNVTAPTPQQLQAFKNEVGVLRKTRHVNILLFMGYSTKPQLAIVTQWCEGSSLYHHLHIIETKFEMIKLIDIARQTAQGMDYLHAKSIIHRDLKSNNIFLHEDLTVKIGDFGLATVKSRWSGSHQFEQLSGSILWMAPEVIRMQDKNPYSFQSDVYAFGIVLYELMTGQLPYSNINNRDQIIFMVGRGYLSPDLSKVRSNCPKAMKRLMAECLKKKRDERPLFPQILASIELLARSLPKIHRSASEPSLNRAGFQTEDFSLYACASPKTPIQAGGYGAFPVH

[5] = target: T5, CRAF^SSDD (MEK1^SASA:CRAF^SSDD:14-3-3 dimer complex) (Homo sapiens, UniProt P04049, Y340D/Y341D); experiment: TR-FRET kinase inhibition assay (phosphorylation of biotinylated MEK1), CRAF SSDD dimer complex; details: for CRAF^SSDD nH (Hill slope): four-parameter fit, 200 μM ATP
T5 construct: His6 (N); StrepII (N); made in house; host or cells: insect cells (baculovirus)

[6] = test system: BRAF^WT (MEK1^SASA:BRAF^WT:14-3-3 dimer complex); experiment: biochemical; details: IC50 ratio versus BRAF^V600E
[7] = 1 nM enzyme, 250 nM MEK1, 200 μM ATP, 40 min preincubation, 30 min reaction, read-out: BRAF^WT IC50

Row | SMILES | IC50 [1] | ARAF^SSDD nH (Hill slope) [1] | CRAF^WT nH (Hill slope) ([3]; 200 μM ATP) | BRAF^WT nH (Hill slope) ([4]; four-parameter fit, 200 μM ATP) | CRAF^SSDD nH (Hill slope) [5] | also measured
1 | CCCS(=O)(=O)Nc1ccc(F)c(C(=O)c2c[nH]c3ncc(Cl)cc23)c1F [PLX4720] | 704 ± 264 nM | −0.5 |  |  |  | 
2 | CCN(C)S(=O)(=O)Nc1ccc(F)c(C(=O)c2c[nH]c3ncc(-c4cnc(C5CC5)nc4)cc23)c1F [PLX7904] | 899 ± 516 nM | −0.6 | −0.4 | −0.6 | −0.4 | IC50 [2]: 320 ± 82.4 nM; IC50 [4, 7]: > 999 nM; IC50 ([4]; read-out: IC50 of BRAF^WT at 10 μM ATP, 10 μM ATP): 170 ± 121 nM; IC50 ([4]; read-out: IC50 of BRAF^WT at 100 μM ATP, 100 μM ATP): > 1000 nM; IC50 ([4]; read-out: IC50 of BRAF^WT at 1000 μM ATP, 1000 μM ATP): > 10000 nM
3 | O=C(c1c(F)ccc(NS(=O)(=O)N2CC[C@@H](F)C2)c1F)c1c[nH]c2ncc(-c3cnc(C4CC4)nc3)cc12 [PLX8394] | 59.6 ± 54.8 nM | −0.8 | −0.5 | −0.9 | −0.5 | fold less active on ARAF^SSDD dimers than on BRAF^V600E ([1]; IC50 ratio versus BRAF^V600E): about 3 fold; IC50 [2]: 21.1 ± 1.78 nM; IC50 ([3]; 4 nM enzyme, 250 nM MEK1, 200 μM ATP, 40 min preincubation, 30 min reaction, read-out: CRAF^WT IC50): > 999 nM; IC50 ([3]; 200 μM ATP, read-out: CRAF^WT dimers IC50): > 1000 nM; fold less active on BRAF^WT dimers than on BRAF^V600E [6]: about 3 fold; IC50 [4, 7]: 54 ± 40.1 nM; effect of increasing ATP concentration on IC50 for BRAF^WT dimers ([4]; 10, 100, 1000 μM ATP): shifted as expected; IC50 ([4]; IC50 of BRAF^WT at 10 μM ATP, 10 μM ATP): 11.1 ± 7.84 nM; IC50 ([4]; IC50 of BRAF^WT at 100 μM ATP, 100 μM ATP): 38.5 ± 34.2 nM; IC50 ([4]; IC50 of BRAF^WT at 1000 μM ATP, 1000 μM ATP): 259 ± 316 nM; IC50 ([5]; read-out: CRAF^SSDD IC50): 279 ± 202 nM
4 | Cc1ccc(C(=O)Nc2ccc(CN3CCN(C)CC3)c(C(F)(F)F)c2)cc1C#Cc1cnc2cccnn12 [Ponatinib] |  | −1.2 | −0.9 | −2.0 | −1.6 | 
5 | CN(C)CCOc1ccc(-c2nc(-c3ccncc3)c(-c3ccc4c(c3)CC/C4=N\O)[nH]2)cc1 [SB590885] | 14.6 ± 3.9 nM | −0.6 |  |  |  | IC50 ([3]; CRAF^WT IC50, 4 nM enzyme, 250 nM MEK1, 200 μM ATP, 40 min preincubation, 30 min reaction): 11.6 ± 1.19 nM; BRAF^WT nH (Hill slope) [4]: −1.0; IC50 ([5]; CRAF^SSDD IC50, 1 nM enzyme, 250 nM MEK1, 200 μM ATP, 40 min preincubation, 30 min reaction): 2.5 ± 1.63 nM
6 | CNC(=O)c1cc(Oc2ccc(NC(=O)Nc3ccc(Cl)c(C(F)(F)F)c3)cc2)ccn1 [Sorafenib] |  | −0.9 | −1.2 |  | −1.3 | 
7 | C[C@@H](NC(=O)c1ncnc(N)c1Cl)c1ncc(C(=O)Nc2cc(C(F)(F)F)c(Cl)cn2)s1 [Tovorafenib] | 225 ± 67.3 nM | −1.4 |  |  |  | 
8 | CCCS(=O)(=O)Nc1ccc(F)c(C(=O)c2c[nH]c3ncc(-c4ccc(Cl)cc4)cc23)c1F [Vemurafenib] | 47.6 ± 9.12 nM | −0.9 | −0.7 | −0.6 | −0.8 | 
